Patent publication US6844343B1, “N-substituted 4-aminopteridines, synthesis and use thereof as pharmaceutical agent” (Vasopharm Biotech GmbH, priority 1999, dated 2005)
pIC50: −log10 of the molar value.

Tests used:
[1] = tested on: purified NO synthase from pig cerebellum or from pig liver; test: Activity assay of purified NOS (3H-L-arginine to 3H-L-citrulline conversion); format: biochemical; settings: substance 100 μM, in the presence of 2 μM tetrahydrobiopterin, 15 min at 37° C.
Method: The inhibition of the activity of purified nitric oxide synthase (NOS) by compounds of the general formula I can be determined as follows.
(§1) In this activity assay the L-citrulline which is a coproduct of the formation of NO by purified NOS is quantitatively measured. ^3H-radiolabeled L-arginine is employed as substrate of the enzyme reaction and is converted into ^3H-L-citrulline and NO. After completion of the enzyme incubation, generated L-citrulline is removed from unused L-arginine by ion exchange chromatography from the reaction mixture; the ^3H activity measured by liquid scintillation then is corresponds to the amount of L-citrulline, which is a direct measure of the activity of NOS.
The basic medium for carrying out the enzyme reaction is TE buffer (triethanolamine, EDTA, pH 7.0).
The final volume of each incubation is 100 μl. The reaction mixture is obtained by mixing the following 6 components on ice: • 1. “REA-Mix” (pH 7.0) which contains triethanolamine, calcium chloride, magnesium chloride, EDTA, L-arginine, calmodulin and flavin adenine dinucleotide (FAD); • 2. freshly prepared stock solution of β-nicotinamide adenine dinucleotide phosphate, reduced form (NADPH); • 3. (6R)-5,6,7,8-tetrahydro-L-biopterin dihydro-chloride stock solution (BH4) or —for experiments without BH4-instead TE buffer; • 4. purified NO synthase from pig cerebellum or from pig liver; • 5.
(§2) After mixing of the components on ice, the reaction mixture was immediately incubated in a water bath at 37° C. for 15 minutes. […] After this incubation time, the reaction was stopped by addition of 900 μl of ice-cold “stop buffer” (20 mM sodium acetate, 2 mM EDTA, pH 5.5), and the mixture (total volume now 1.0 ml) was placed on ice. To remove the unreacted ^3H-L-arginine, the mixture was loaded onto an ion exchange column with 0.8 ml of Dowex AG 50 WX-8 (100-200 mesh) which has previously been washed and equilibrated with 2 ml of stop buffer. After loading of the sample, the column was eluted twice with 1 ml of water each time. The flow-through of the sample and the eluate were collected in scintillation vessels and […] (total volume 3 ml). 9 ml of scintillator solution were added to the 3 ml of aqueous measurement solution, and the homogeneous mixture was measured in a Tricarb 2500 TR (Packard) liquid scintillation counter for 1 minute for each sample. […] Each substance was tested for an antagonistic effect in a concentration of 100 μM in the presence of 2 μM tetrahydrobiopterin, and for an agonistic effect on NOS in the absence of tetrahydrobiopterin.
All incubations were carried out on triplicates. Each experiment was repeated three times with different enzyme preparations.

NOS-III = NOS-III (Homo sapiens, UniProt P29474); test: Inhibition of human NOS isoforms: NOS-III; format: biochemical
Method: (§3) After mixing of the components on ice, the reaction mixture was immediately incubated in a water bath at 37° C. for 15 minutes. […] After this incubation time, the reaction was stopped by addition of 900 μl of ice-cold “stop buffer” (20 mM sodium acetate, 2 mM EDTA, pH 5.5), and the mixture (total volume now 1.0 ml) was placed on ice. To remove the unreacted ^3H-L-arginine, the mixture was loaded onto an ion exchange column with 0.8 ml of Dowex AG 50 WX-8 (100-200 mesh) which has previously been washed and equilibrated with 2 ml of stop buffer. After loading of the sample, the column was eluted twice with 1 ml of water each time. The flow-through of the sample and the eluate were collected in scintillation vessels and […] (total volume 3 ml). 9 ml of scintillator solution were added to the 3 ml of aqueous measurement solution, and the homogeneous mixture was measured in a Tricarb 2500 TR (Packard) liquid scintillation counter for 1 minute for each sample. […] In addition, the relative selectivities of the antipterin inhibitors for the three known human NOS isoforms were measured. So doing, the IC50 values for NOS-II/NOS-I and NOS-III/NOS-I were formed (compare Table 2).

NOS-II = NOS-II (Homo sapiens, UniProt P35228); test: Inhibition of human NOS isoforms: NOS-II; format: biochemical
Method: as §3

NOS-I = NOS-I (Homo sapiens, UniProt P29475); test: Inhibition of human NOS isoforms: NOS-I; format: biochemical
Method: as §1, §2
In addition, the relative selectivities of the antipterin inhibitors for the three known human NOS isoforms were measured. So doing, the IC50 values for NOS-II/NOS-I and NOS-III/NOS-I were formed (compare Table 2).

[2] = tested on: purified NO synthase from pig cerebellum or from pig liver; test: Activity assay of purified NOS (3H-L-arginine to 3H-L-citrulline conversion); format: biochemical; settings: incubated in the presence of 5 kU/ml catalase for 45 minutes
[3] = tested on: intact rat alveolar macrophages; settings: cited from earlier work
NO synthase = settings: literature reports on BH4 analogues; cited from earlier work

| Molecule | Remaining activity (% of Vmax) [1] | Activity (% of control) (NOS-III; human NOS-III) | Activity (% of control) (NOS-II; human NOS-II) | Activity (% of control) (NOS-I) | effect on NO production / NO synthase (NO synthase) | also measured |
| --- | --- | --- | --- | --- | --- | --- |
| CCCN(CCC)c1nc(N)nc2c1NC(c1ccc(OC)cc1)CN2.Cl.Cl.O.O (centres unmarked) [Example 47, 2-amino-4-(di-n-propylamino)-6-(4-methoxyphenyl)-5,6,7,8-tetrahydropteridine dihydrochloride dihydrate] | 0 % of Vmax | 31 ± 3 % of control | 78 ± 0.4 % of control | 0 ± 0.1 % of control | – | – |
| Nc1nc(N(Cc2ccccc2)Cc2ccccc2)c2nc(-c3ccc(Cl)cc3)cnc2n1.O.O [Example 20, 2-amino-4-(dibenzylamino)-6-(4-chlorophenyl)-pteridine dihydrate] | 0 % of Vmax | – | – | – | – | pIC50 [2]: 5.46 |
| Nc1nc2ncc(C(=O)O)nc2c(=O)[nH]1 [Pterin-6-carboxylic acid] | – | – | – | – | – | inhibition of NO production [3]: no effect |
| CCCN(CCC)c1nc(N)nc2c1NC(c1ccccc1)CN2.Cl.Cl.Cl.O (centres unmarked) [Example 46, 2-amino-4-(di-n-propylamino)-6-phenyl-5,6,7,8-tetrahydropteridine trihydrochloride hydrate] | 8 ± 0.05 % of Vmax | 27 ± 0.2 % of control | 68 ± 1 % of control | 1 ± 0.1 % of control | – | – |
| 2-amino-4-(diethylamino)-6-(4-chlorophenyl)-5,6,7,8-tetrahydropteridine dihydrochloride hemi-hydrate [Example 48] | 0 % of Vmax | 27 ± 1 % of control | 74 ± 4 % of control | 2 ± 0 % of control | – | pIC50 [2]: 5.10; pIC50 (NOS-III; human NOS-III): 4.34; Ratio NOS-III/I (NOS-III; ratio of IC50 values NOS-III/NOS-I): 1.1; pIC50 (NOS-II; human NOS-II, enzyme inhibition not complete up to 300 μM, IC50 values extrapolated): 3.52; Ratio NOS-II/I (NOS-II; ratio of IC50 values NOS-II/NOS-I): 7.2; pIC50 (NOS-I): 4.38 |
| COc1ccc(-c2cnc3nc(N)nc(N(Cc4ccccc4)Cc4ccccc4)c3n2)cc1 [Example 21, 2-amino-4-(dibenzylamino)-6-(4-methoxyphenyl)-pteridine] | 0 ± 0.05 % of Vmax | 68 ± 2 % of control | 81 ± 6 % of control | 27 ± 1 % of control | – | – |
| 2-amino-4-(dibenzylamino)-6-(3,4-dimethoxyphenyl)-pteridine hemihydrate [Example 22] | 0 % of Vmax | – | – | – | – | pIC50 [2]: 5.70 |
| Nc1nc2ncc([C@H](O)[C@H](O)CO)nc2c(=O)[nH]1 [neopterin] | – | – | – | – | no significant effects | – |
| CN(Cc1cnc2nc(N)nc(N)c2n1)c1ccc(C(=O)N[C@@H](CCC(=O)O)C(=O)O)cc1 [methotrexate] | – | – | – | – | no significant effects | – |
| CC1CNc2nc(N)[nH]c(=O)c2N1 (centres unmarked) [6-methyl-5,6,7,8-tetrahydropterin] | – | – | – | – | able to partly replace the natural cofactor | – |
| Nc1nc2c(c(=O)[nH]1)NC(CNc1ccc(C(=O)N[C@@H](CCC(=O)O)C(=O)O)cc1)CN2 (some centres unmarked) [tetrahydrofolic acid] | – | – | – | – | no significant effects | – |
| Nc1nc(NCC2CCCCC2)c2c(n1)NCC(c1ccc(Cl)cc1)N2 (centres unmarked) [Example 49, 2-amino-4-(cyclohexylmethylamino)-6-(4-chloro-phenyl)-5,6,7,8-tetrahydropteridine dihydro-chloride hydrate] | 0 % of Vmax | 18 ± 1 % of control | 78 ± 6 % of control | 0 ± 0.1 % of control | – | – |
| C[C@@H](O)[C@@H](O)[C@H]1CNc2nc(N)[nH]c(=O)c2N1 [Example 6S-BH4, 6S-BH4] | – | – | – | – | able to partly replace the natural cofactor | – |
| C[C@H](O)C(=O)C1=Nc2c(nc(N)[nH]c2=O)NC1 [sepiapterin] | – | – | – | – | – | inhibition of NO production [3]: inhibition of NO production |
| CC1Nc2nc(N)[nH]c(=O)c2NC1C (centres unmarked) [6,7-dimethyl-5,6,7,8-tetrahydropterin] | – | – | – | – | no significant effects | – |
